{"source": "patent US20050197350A1", "about": "“Novel quinoline, tetrahydroquinazoline, and pyrimidine derivatives and methods of treatment related to the use thereof” (TAISHO PHARMACEUTICAL CO., LTD., priority 2003, published 2005)", "data": [{"test_system": "MCH receptors", "assay": "MCH receptor activity class (method not given)", "conditions": "activity class 1-3: percent of control at 10^-7 M or IC50", "values": [{"smiles": "Cc1cc(Br)cc(C)c1NC(=O)N[C@H]1CC[C@@H](Nc2nc3c(c(N(C)C)n2)CCCC3)CC1", "note": "[compound 1690, N-(4-bromo-2,6-dimethylphenyl)-N′-(cis-4-{[4-(dimethylamino)-5,6,7,8-tetrahydroquinazolin-2-yl]amino}cyclohexyl)urea]", "class": "1 (Class 1: The value of percent of control at 10^−7 M was less than 40% or the value of IC50 was less than 50 nM.)"}, {"smiles": "Cc1noc(-c2ccccc2)c1NC(=O)N[C@H]1CC[C@@H](Nc2nc3c(c(N(C)C)n2)CCCC3)CC1", "note": "[compound 1691]", "class": "1 (Class 1: The value of percent of control at 10^−7 M was less than 40% or the value of IC50 was less than 50 nM.)"}, {"smiles": "Cc1cc(NC(=O)N[C@H]2CC[C@@H](Nc3nc4c(c(N(C)C)n3)CCCC4)CC2)c(C(F)(F)F)o1", "note": "[compound 1692]", "class": "3 (Class 3 The value of percent of control at 10^−7 M was more than 60% or the value of IC50 was more than 200 nM.)"}, {"smiles": "CN(C)c1nc(N[C@H]2CC[C@@H](NC(=O)Nc3ccccc3Br)CC2)nc2c1CCCC2", "note": "[compound 1693]", "class": "3 (Class 3 The value of percent of control at 10^−7 M was more than 60% or the value of IC50 was more than 200 nM.)"}, {"smiles": "CN(C)c1nc(N[C@H]2CC[C@@H](NC(=O)Nc3ccccc3-c3ccccc3)CC2)nc2c1CCCC2", "note": "[compound 1694]", "class": "3 (Class 3 The value of percent of control at 10^−7 M was more than 60% or the value of IC50 was more than 200 nM.)"}, {"smiles": "CCCCNC(=O)N[C@H]1CC[C@@H](Nc2nc3c(c(N(C)C)n2)CCCC3)CC1", "note": "[compound 1695]", "class": "3 (Class 3 The value of percent of control at 10^−7 M was more than 60% or the value of IC50 was more than 200 nM.)"}, {"smiles": "Cc1cccc(NC(=O)N[C@H]2CC[C@@H](Nc3nc4c(c(N(C)C)n3)CCCC4)CC2)c1C", "note": "[compound 1696]", "class": "3 (Class 3 The value of percent of control at 10^−7 M was more than 60% or the value of IC50 was more than 200 nM.)"}, {"smiles": "CCOC(=O)c1cccc(NC(=O)N[C@H]2CC[C@@H](Nc3nc4c(c(N(C)C)n3)CCCC4)CC2)c1", "note": "[compound 1697]", "class": "3 (Class 3 The value of percent of control at 10^−7 M was more than 60% or the value of IC50 was more than 200 nM.)"}, {"smiles": "C=C(C)c1cccc(C(C)(C)NC(=O)N[C@H]2CC[C@@H](Nc3nc4c(c(N(C)C)n3)CCCC4)CC2)c1", "note": "[compound 1698]", "class": "3 (Class 3 The value of percent of control at 10^−7 M was more than 60% or the value of IC50 was more than 200 nM.)"}, {"smiles": "CN(C)c1nc(N[C@H]2CC[C@@H](NC(=O)Nc3cccc4ccccc34)CC2)nc2c1CCCC2", "note": "[compound 1700]", "class": "2 (Class 2: The value of percent of control at 10^−7 M was from 40% to 60% or the value of IC′50 was from 50 nM to 200 nM.)"}, {"smiles": "CN(C)c1nc(N[C@H]2CC[C@@H](NC(=O)NC3C[C@H]3c3ccccc3)CC2)nc2c1CCCC2", "note": "(some centres unmarked) [compound 1701]", "class": "3 (Class 3 The value of percent of control at 10^−7 M was more than 60% or the value of IC50 was more than 200 nM.)"}, {"smiles": "CN(C)c1nc(N[C@H]2CC[C@@H](NC(=O)Nc3ccc(Oc4ccccc4)cc3)CC2)nc2c1CCCC2", "note": "[compound 1702]", "class": "3 (Class 3 The value of percent of control at 10^−7 M was more than 60% or the value of IC50 was more than 200 nM.)"}, {"smiles": "CCCCCNC(=O)N[C@H]1CC[C@@H](Nc2nc3c(c(N(C)C)n2)CCCC3)CC1", "note": "[compound 1703]", "class": "3 (Class 3 The value of percent of control at 10^−7 M was more than 60% or the value of IC50 was more than 200 nM.)"}, {"smiles": "CC(NC(=O)NC1CCC(Nc2nc3c(c(N(C)C)n2)CCCC3)CC1)c1ccccc1", "note": "(centres unmarked) [compound 1707]", "class": "3 (Class 3 The value of percent of control at 10^−7 M was more than 60% or the value of IC50 was more than 200 nM.)"}, {"smiles": "CN(C)c1nc(N[C@H]2CC[C@@H](NC(=O)Nc3c(Cl)c(Cl)cc(Cl)c3Cl)CC2)nc2c1CCCC2", "note": "[compound 1708]", "class": "3 (Class 3 The value of percent of control at 10^−7 M was more than 60% or the value of IC50 was more than 200 nM.)"}, {"smiles": "CN(C)c1nc(N[C@H]2CC[C@@H](NC(=O)Nc3ccc(Br)cc3Br)CC2)nc2c1CCCC2", "note": "[compound 1709]", "class": "2 (Class 2: The value of percent of control at 10^−7 M was from 40% to 60% or the value of IC′50 was from 50 nM to 200 nM.)"}]}, {"test_system": "MCH receptors", "assay": "MCH receptor activity class (method not given)", "conditions": "class by percent of control at 10^-7 M or IC50", "values": [{"smiles": "CN(C)c1nc(N[C@H]2CC[C@@H](NC(=O)NCc3ccc(Cl)cc3Cl)CC2)nc2c1CCCC2", "note": "[compound 1710]", "class": "2 (Class 2: The value of percent of control at 10^−7 M was from 40% to 60% or the value of IC′50 was from 50 nM to 200 nM.)"}, {"smiles": "COc1ccc(NC(=O)N[C@H]2CC[C@@H](Nc3nc4c(c(N(C)C)n3)CCCC4)CC2)c(OC)c1", "note": "[compound 1711, N-(2,4-dimethoxyphenyl)-N′-(cis-4-{[4-(dimethylamino)-5,6,7,8-tetrahydroquinazolin-2-yl]amino}cyclohexyl)urea]", "class": "2 (Class 2: The value of percent of control at 10^−7 M was from 40% to 60% or the value of IC′50 was from 50 nM to 200 nM.)"}, {"smiles": "CCOc1ccccc1NC(=O)N[C@H]1CC[C@@H](Nc2nc3c(c(N(C)C)n2)CCCC3)CC1", "note": "[compound 1712]", "class": "2 (Class 2: The value of percent of control at 10^−7 M was from 40% to 60% or the value of IC′50 was from 50 nM to 200 nM.)"}, {"smiles": "CN(C)c1nc(N[C@H]2CC[C@@H](NC(=O)NCc3ccccc3F)CC2)nc2c1CCCC2", "note": "[compound 1713]", "class": "2 (Class 2: The value of percent of control at 10^−7 M was from 40% to 60% or the value of IC′50 was from 50 nM to 200 nM.)"}, {"smiles": "Cc1cc([N+](=O)[O-])ccc1NC(=O)N[C@H]1CC[C@@H](Nc2nc3c(c(N(C)C)n2)CCCC3)CC1", "note": "[compound 1714]", "class": "3 (Class 3 The value of percent of control at 10^−7 M was more than 60% or the value of IC50 was more than 200 nM.)"}, {"smiles": "Cc1ccc([N+](=O)[O-])cc1NC(=O)N[C@H]1CC[C@@H](Nc2nc3c(c(N(C)C)n2)CCCC3)CC1", "note": "[compound 1715]", "class": "3 (Class 3 The value of percent of control at 10^−7 M was more than 60% or the value of IC50 was more than 200 nM.)"}, {"smiles": "Cc1ccccc1CNC(=O)N[C@H]1CC[C@@H](Nc2nc3c(c(N(C)C)n2)CCCC3)CC1", "note": "[compound 1716]", "class": "3 (Class 3 The value of percent of control at 10^−7 M was more than 60% or the value of IC50 was more than 200 nM.)"}, {"smiles": "CN(C)c1nc(N[C@H]2CC[C@@H](NC(=O)Nc3ccccc3[N+](=O)[O-])CC2)nc2c1CCCC2", "note": "[compound 1717]", "class": "3 (Class 3 The value of percent of control at 10^−7 M was more than 60% or the value of IC50 was more than 200 nM.)"}, {"smiles": "CN(C)c1nc(N[C@H]2CC[C@@H](NC(=O)Nc3ccc4c(c3)OCO4)CC2)nc2c1CCCC2", "note": "[compound 1718]", "class": "3 (Class 3 The value of percent of control at 10^−7 M was more than 60% or the value of IC50 was more than 200 nM.)"}, {"smiles": "COc1cc(NC(=O)N[C@H]2CC[C@@H](Nc3nc4c(c(N(C)C)n3)CCCC4)CC2)cc(OC)c1OC", "note": "[compound 1719]", "class": "1 (Class 1: The value of percent of control at 10^−7 M was less than 40% or the value of IC50 was less than 50 nM.)"}, {"smiles": "COc1ccc(NC(=O)N[C@H]2CC[C@@H](Nc3nc4c(c(N(C)C)n3)CCCC4)CC2)cc1OC", "note": "[compound 1720, N-(3,4-dimethoxyphenyl)-N′-(cis-4-{[4-(dimethylamino)-5,6,7,8-tetrahydroquinazolin-2-yl]amino}cyclohexyl)urea]", "class": "2 (Class 2: The value of percent of control at 10^−7 M was from 40% to 60% or the value of IC′50 was from 50 nM to 200 nM.)"}, {"smiles": "COc1ccc(NC(=O)N[C@H]2CC[C@@H](Nc3nc4c(c(N(C)C)n3)CCCC4)CC2)cc1Cl", "note": "[compound 1721]", "class": "3 (Class 3 The value of percent of control at 10^−7 M was more than 60% or the value of IC50 was more than 200 nM.)"}, {"smiles": "CN(C)c1nc(N[C@H]2CC[C@@H](NC(=O)Nc3ccc(Br)cc3C(F)(F)F)CC2)nc2c1CCCC2", "note": "[compound 1722]", "class": "3 (Class 3 The value of percent of control at 10^−7 M was more than 60% or the value of IC50 was more than 200 nM.)"}, {"smiles": "CN(C)c1nc(N[C@H]2CC[C@@H](NC(=O)NCc3ccc(Br)cc3)CC2)nc2c1CCCC2", "note": "[compound 1723]", "class": "3 (Class 3 The value of percent of control at 10^−7 M was more than 60% or the value of IC50 was more than 200 nM.)"}, {"smiles": "Cc1cc(Cl)ccc1NC(=O)N[C@H]1CC[C@@H](Nc2nc3c(c(N(C)C)n2)CCCC3)CC1", "note": "[compound 1724, N-(4-chloro-2-methylphenyl)-N′-(cis-4-{[4-(dimethylamino)-5,6,7,8-tetrahydroquinazolin-2-yl]amino}cyclohexyl)urea]", "class": "2 (Class 2: The value of percent of control at 10^−7 M was from 40% to 60% or the value of IC′50 was from 50 nM to 200 nM.)"}, {"smiles": "CN(C)c1nc(N[C@H]2CC[C@@H](NC(=O)NCc3ccc(F)cc3)CC2)nc2c1CCCC2", "note": "[compound 1725]", "class": "2 (Class 2: The value of percent of control at 10^−7 M was from 40% to 60% or the value of IC′50 was from 50 nM to 200 nM.)"}, {"smiles": "COc1ccc(NC(=O)N[C@H]2CC[C@@H](Nc3nc4c(c(N(C)C)n3)CCCC4)CC2)c(C)c1", "note": "[compound 1726]", "class": "2 (Class 2: The value of percent of control at 10^−7 M was from 40% to 60% or the value of IC′50 was from 50 nM to 200 nM.)"}, {"smiles": "COc1cc(OC)c(NC(=O)N[C@H]2CC[C@@H](Nc3nc4c(c(N(C)C)n3)CCCC4)CC2)cc1Cl", "note": "[compound 1727]", "class": "1 (Class 1: The value of percent of control at 10^−7 M was less than 40% or the value of IC50 was less than 50 nM.)"}, {"smiles": "Cc1cc(Br)ccc1NC(=O)N[C@H]1CC[C@@H](Nc2nc3c(c(N(C)C)n2)CCCC3)CC1", "note": "[compound 1729, N-(4-bromo-2-methylphenyl)-N′-(cis-4-{[4-(dimethylamino)-5,6,7,8-tetrahydroquinazolin-2-yl]amino}cyclohexyl)urea]", "class": "2 (Class 2: The value of percent of control at 10^−7 M was from 40% to 60% or the value of IC′50 was from 50 nM to 200 nM.)"}, {"smiles": "CN(C)c1nc(N[C@H]2CC[C@@H](NC(=O)Nc3ccc4c(c3)OCCO4)CC2)nc2c1CCCC2", "note": "[compound 1731]", "class": "3 (Class 3 The value of percent of control at 10^−7 M was more than 60% or the value of IC50 was more than 200 nM.)"}, {"smiles": "CC(C)c1cc(Br)c(NC(=O)N[C@H]2CC[C@@H](Nc3nc4c(c(N(C)C)n3)CCCC4)CC2)c(Br)c1", "note": "[compound 1732]", "class": "3 (Class 3 The value of percent of control at 10^−7 M was more than 60% or the value of IC50 was more than 200 nM.)"}, {"smiles": "COc1ccc(NC(=O)N[C@H]2CC[C@@H](Nc3nc4c(c(N(C)C)n3)CCCC4)CC2)cc1OC1CCCC1", "note": "[compound 1733]", "class": "3 (Class 3 The value of percent of control at 10^−7 M was more than 60% or the value of IC50 was more than 200 nM.)"}]}]}
